The values that follow come from PMC12654597, “Dawson- and Lindqvist-Type Hybrid Polyoxometalates: Synthesis, Characterization and Ca^2+-ATPase Inhibition Potential” (Molecules, 2025).

Where two headings read alike, the source gives them in different places.

The target in assay [1] is T1, sarcoplasmic reticulum (SR) Ca^2+-ATPase (Oryctolagus cuniculus, UniProt P04191).
T1 construct: from tissue; host or cells: rabbit skeletal muscle sarcoplasmic reticulum vesicles
Nature of the assay: Sarcoplasmic reticulum Ca2+-ATPase activity, coupled enzyme pyruvate kinase/lactate dehydrogenase assay. The format is biochemical, rabbit. As to conditions: for IC50: SR vesicles from rabbit skeletal muscle, pH 7.0, 25 °C, uncoupled activity (A23187), triplicate. From the text: In order to evaluate the inhibition potential for each of the POMs compounds regarding the Ca^2+-ATPase activity, increasing concentrations of each POM and a control without the presence of the inhibitor were used in order to determine the IC50 values. For each of these assays, an absorbance versus time kinetic is obtained. In the absence of the POM, the control assay was obtained—that is, a kinetic with a higher slope, while by increasing the concentrations of the POMs, lower enzymatic kinetic slopes were found due to the inhibition of the ATPase activity (Figure S1).
Using this method, the effects of the inhibitors can be observed in real time and recorded within 2 to 5 min upon addition of the inhibitor, as described previously. […] For each compound, the equation governing the trendline of this can be solved for 50% in order to determine the IC50 value.
The sarcoplasmic reticulum vesicles (SRV) that contain the Ca^2+-ATPase was previously prepared from rabbit skeletal muscles as described elsewhere. The vesicles were suspended in 0.1 M KCl, 10 mM HEPES (pH 7.0), diluted 1:1 with 2.0 M sucrose, and frozen in liquid nitrogen for storage at −80 °C. […] Stock solutions of the POMs compounds (1 mM) were freshly prepared by dissolving the solid compound in miliQ water and keeping the solution at room temperature before use.
For carrying out the determination of Ca^2+-ATPase activity assays, the following medium was prepared: 25 mM HEPES (pH 7.0), 100 mM KCl, 5 mM MgCl2 and 50 µM CaCl2.
The experiments were performed with isolated sarcoplasmic reticulum vesicles (SRVs) previously diluted to 1 mg/mL with a sucrose concentration of 0.25 M (Figure 11). 0.8 mL of medium described above was added into a quartz cuvette. 0.42 mM phosphoenolpyruvate (PEP), 18 IU lactate dehydrogenase, 7.5 IU 155 pyruvate kinase, and 2.5 mM ATP without (control) or with increasing concentrations of POMs were added to this medium. […] The absorbance of the solution was measured spectrophotometrically at 340 nm, 25 °C, and an auto zero was performed. Subsequently, 0.25 mM NADH was added, allowing the absorbance value to stabilize to about 1.3 O.D. The assay begins after the addition of 10 μg/mL of Ca^2+-ATPase (basal activity) and one minute after ionophore A23187 (calcimycin) 4% (w/w) was added (uncoupled activity), and the kinetics followed for about 2 min in the absence or in the presence of increasing concentrations of POMs, from 0 to 15 μM for compound 1 and from 0 to 80 μM for compound 2. […]
For each experimental condition, the experiments were always performed in triplicate. Therefore, the determination of Ca^2+-ATPase activity without and with the inhibitor was made using a continuous enzymatic method using the measurement of absorbance versus time (Figure S1), as described elsewhere.

Assay [2] has as its target T1, sarcoplasmic reticulum (SR) Ca^2+-ATPase. The note with it: cited from earlier work; for IC50: same experimental model, method and conditions.
The target of a further assay is Ca^2+-ATPase. As to conditions: literature values for known P-type ATPase inhibitors; cited from earlier work.

T1 sequence (P04191 1-994 isoform P04191-2): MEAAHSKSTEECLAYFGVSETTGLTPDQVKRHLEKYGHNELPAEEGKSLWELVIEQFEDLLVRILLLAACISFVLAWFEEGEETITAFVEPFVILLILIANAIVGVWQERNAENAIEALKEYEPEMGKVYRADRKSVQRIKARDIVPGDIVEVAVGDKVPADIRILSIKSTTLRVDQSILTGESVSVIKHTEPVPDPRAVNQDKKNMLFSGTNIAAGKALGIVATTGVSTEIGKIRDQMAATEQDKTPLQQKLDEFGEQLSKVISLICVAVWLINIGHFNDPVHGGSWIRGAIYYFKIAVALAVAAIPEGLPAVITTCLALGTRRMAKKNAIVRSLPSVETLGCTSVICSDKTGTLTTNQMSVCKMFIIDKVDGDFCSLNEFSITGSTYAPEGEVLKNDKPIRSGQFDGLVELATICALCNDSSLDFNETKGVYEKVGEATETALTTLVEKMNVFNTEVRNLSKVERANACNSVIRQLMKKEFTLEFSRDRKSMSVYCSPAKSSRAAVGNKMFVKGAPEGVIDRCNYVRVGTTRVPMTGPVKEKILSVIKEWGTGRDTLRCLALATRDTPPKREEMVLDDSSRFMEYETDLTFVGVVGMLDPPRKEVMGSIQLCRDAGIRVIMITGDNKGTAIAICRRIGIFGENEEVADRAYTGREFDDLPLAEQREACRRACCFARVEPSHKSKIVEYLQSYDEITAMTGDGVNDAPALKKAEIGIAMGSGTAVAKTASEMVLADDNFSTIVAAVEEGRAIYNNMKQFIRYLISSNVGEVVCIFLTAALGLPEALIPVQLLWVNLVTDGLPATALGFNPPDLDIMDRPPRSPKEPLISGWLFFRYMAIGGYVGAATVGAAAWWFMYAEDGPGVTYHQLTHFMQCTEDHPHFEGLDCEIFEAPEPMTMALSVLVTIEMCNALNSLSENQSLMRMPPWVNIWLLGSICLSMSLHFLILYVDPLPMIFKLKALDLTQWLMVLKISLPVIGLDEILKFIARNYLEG

Regarding (C2H8N1)6[V2Mo18O62].3H2O [compound 1], in assay [1], the IC50 worked out at 3.4 µM. Also, the “fold inhibition potential regarding ATPase activity relative to compound 2” value in assay [1] (ratio of IC50 values, compound 1 vs compound 2) is “about 13 fold”. Take metformin-decavanadate [Metf-V10]: the “IC50 ATPase inhibition value relative to V10 alone” value in assay [2] (metformin-decavanadate vs V10) is “six times higher”. In addition, the half-inhibitory concentration (IC50) in assay [2] was 87.4 µM.

As for `CC(=O)C1=C(O)[C@@H]2[C@H]3c4c[nH]c5cccc(c45)C[C@H]3C(C)(C)N2C1=O` [CPA, cyclopiazonic acid], at Ca^2+-ATPase, the IC50 was 0.1 to 0.2 µM. In the case of `Cc1ccc(-c2cc(C(F)(F)F)nn2-c2ccc(S(N)(=O)=O)cc2)cc1` [celecoxib], on Ca^2+-ATPase, the IC50 was 35 µM. As for `C/C=C(/C)C(=O)O[C@H]1C(C)=C2[C@H]([C@@H]1OC(=O)CCCCCCC)[C@@](C)(OC(C)=O)C[C@H](OC(=O)CCC)[C@@]1(O)[C@H]2OC(=O)[C@@]1(C)O` [TG, thapsigargin], the IC50 at Ca^2+-ATPase was 0.001 to 0.029 µM. In assay [1], (C4H16N3)4[V2W4O19]3.12H2O [compound 2] gave an IC50 of 45.1 µM. Moreover, in assay [1] (comparison of IC50 values, compound 2 vs TeW6), the “Ca^2+-ATPase inhibition potency relative to Anderson type TeW6” value is “four times more potent”. Consider `[O]=[V]([OH])([OH])[O][V]1(=[O])[O][V]2(=[O])[O][V](=[O])([O][V](=[O])([OH])[OH])[O][V](=[O])([O]2)[O][V]2(=[O])[O][V](=[O])([O][V](=[O])([OH])[OH])[O][V](=[O])([O]1)[O]2` (stereo not shown) [V10, decavanadate], for which the IC50 in assay [2] is 15 µM.

For orientation: IC50 means the concentration needed to halve the response being measured.
